Source: PubChem BioAssay AID1963967 (Molecular Pharmacology Branch, DTP, NCI, 2024)

System: 855422-203-R-J1-PDC spheroids with HUVEC/MSC, viability
Experiment: Anticancer human tumor 855422-203-R-J1-PDC patient-derived bladder carcinoma cell line growth inhibition [PI3K]
Settings: for IC50: curve of first compound; for viability, T/C: stronger effect = lower value
Summary of the method: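 Tumor cells were combined with HUVEC and MSCs into spheroids, then dosed with PI3K-inhibitor combinations over half-log ranges capped near clinical Cmax or 10 microM.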

[1] = second compound 0.0316 µM, first compound 0.0316 µM
[2] = second compound 0.0316 µM, first compound 0.1 µM
[3] = second compound 0.0316 µM, first compound 0.316 µM
[4] = second compound 0.0316 µM, first compound 1 µM
[5] = second compound 0.0316 µM, first compound 3.16 µM
[6] = second compound 0.0316 µM, first compound 10 µM
[7] = second compound 0.1 µM, first compound 0.0316 µM
[8] = second compound 0.1 µM, first compound 0.1 µM
[9] = second compound 0.1 µM, first compound 0.316 µM
[10] = second compound 0.1 µM, first compound 1 µM
[11] = second compound 0.1 µM, first compound 3.16 µM
[12] = second compound 0.1 µM, first compound 10 µM
[13] = second compound 0.316 µM, first compound 0.0316 µM
[14] = second compound 0.316 µM, first compound 0.1 µM
[15] = second compound 0.316 µM, first compound 0.316 µM
[16] = second compound 0.316 µM, first compound 1 µM
[17] = second compound 0.316 µM, first compound 3.16 µM
[18] = second compound 0.316 µM, first compound 10 µM
[19] = second compound 1 µM, first compound 0.0316 µM
[20] = second compound 1 µM, first compound 0.1 µM
[21] = second compound 1 µM, first compound 0.316 µM
[22] = second compound 1 µM, first compound 1 µM
[23] = second compound 1 µM, first compound 3.16 µM
[24] = second compound 1 µM, first compound 10 µM
[25] = second compound 3.16 µM, first compound 0.0316 µM
[26] = second compound 3.16 µM, first compound 0.1 µM
[27] = second compound 3.16 µM, first compound 0.316 µM
[28] = second compound 3.16 µM, first compound 1 µM
[29] = second compound 3.16 µM, first compound 3.16 µM
[30] = second compound 3.16 µM, first compound 10 µM
[31] = second compound 10 µM, first compound 0.0316 µM
[32] = second compound 10 µM, first compound 0.1 µM
[33] = second compound 10 µM, first compound 0.316 µM
[34] = second compound 10 µM, first compound 1 µM
[35] = second compound 10 µM, first compound 3.16 µM
[36] = second compound 10 µM, first compound 10 µM
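Note: agents incubated with spheroids for one week before read-out.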
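Throughout, for viability, T/C: 100% = DMSO vehicle-treated control wells.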

In the case of `Cn1ncc(Cl)c1-c1cc(C(=O)NC(CN)Cc2cccc(F)c2)sc1Cl` (centres undefined) + Cc1nc(NC(=O)N2CCCC2C(N)=O)sc1-c1ccnc(C(C)(C)C(F)(F)F)c1, the IC50 (second compound 0.0316 µM) is reported as 1020 nM, the IC50 (second compound 0.1 µM) is reported as 1160 nM and the IC50 (second compound 0.316 µM) is reported as 893 nM. The IC50 (second compound 1 µM) was 637 nM, the IC50 (second compound 3.16 µM) was under 31.6 nM and the IC50 (second compound 10 µM) was under 31.6 nM. It also gave a viability, T/C [1] of 100%, a viability, T/C [2] of 78% and a viability, T/C [3] of 71%. It also gave a viability, T/C [4] of 50.1%, a viability, T/C [5] of 32.6% and a viability, T/C [6] of 9.93%. For the same molecule, the viability, T/C [7] was 89.6%, the viability, T/C [8] was 77.6% and the viability, T/C [9] was 71.8%. It also gave a viability, T/C [10] of 50.9%, a viability, T/C [11] of 32.9% and a viability, T/C [12] of 9.68%. It also gave a viability, T/C [13] of 89.3%, a viability, T/C [14] of 74.6% and a viability, T/C [15] of 64.8%. For the same molecule, the viability, T/C [16] was 52.4%, the viability, T/C [17] was 25.8% and the viability, T/C [18] was 7.56%. For the same molecule, the viability, T/C [19] was 64.8%, the viability, T/C [20] was 65.3% and the viability, T/C [21] was 55.5%. The viability, T/C [22] was 46.5%, the viability, T/C [23] was 21.3% and the viability, T/C [24] was 3.26%. It also gave a viability, T/C [25] of 46.9%, a viability, T/C [26] of 43% and a viability, T/C [27] of 41.9%. The viability, T/C [28] was 31.4%, the viability, T/C [29] was 13.9% and the viability, T/C [30] was 2.81%. It also gave a viability, T/C [31] of 25.8%, a viability, T/C [32] of 23.4% and a viability, T/C [33] of 20.3%. It also gave a viability, T/C [34] of 16.3%, a viability, T/C [35] of 9.69% and a viability, T/C [36] of 0.43%.

`Cn1nccc1Nc1nccc(-c2ccn(C(CO)c3ccc(Cl)c(F)c3)c(=O)c2)n1` (centres undefined) + Cc1nc(NC(=O)N2CCCC2C(N)=O)sc1-c1ccnc(C(C)(C)C(F)(F)F)c1 gave an IC50 (second compound 0.0316 µM) of 9480 nM, an IC50 (second compound 0.1 µM) of 8220 nM and an IC50 (second compound 0.316 µM) of 6990 nM. The IC50 (second compound 1 µM) was 4270 nM, the IC50 (second compound 3.16 µM) was under 31.6 nM and the IC50 (second compound 10 µM) was under 31.6 nM. It also gave a viability, T/C [1] of 106%, a viability, T/C [2] of 95.9% and a viability, T/C [3] of 103%. The viability, T/C [4] was 89%, the viability, T/C [5] was 86.4% and the viability, T/C [6] was 47.5%. The viability, T/C [7] was 99.3%, the viability, T/C [8] was 93.3% and the viability, T/C [9] was 94.8%. The viability, T/C [10] was 85.9%, the viability, T/C [11] was 85% and the viability, T/C [12] was 43.2%. The viability, T/C [13] was 96%, the viability, T/C [14] was 89.3% and the viability, T/C [15] was 96.4%. It also gave a viability, T/C [16] of 92.2%, a viability, T/C [17] of 87.9% and a viability, T/C [18] of 32.8%. The viability, T/C [19] was 70.1%, the viability, T/C [20] was 70.1% and the viability, T/C [21] was 63.4%. The viability, T/C [22] was 67.5%, the viability, T/C [23] was 61.5% and the viability, T/C [24] was 17.9%. It also gave a viability, T/C [25] of 42.3%, a viability, T/C [26] of 39.6% and a viability, T/C [27] of 40.7%. The viability, T/C [28] was 35.2%, the viability, T/C [29] was 26.9% and the viability, T/C [30] was 10.1%. For the same molecule, the viability, T/C [31] was 24.6%, the viability, T/C [32] was 21.6% and the viability, T/C [33] was 19.4%. For the same molecule, the viability, T/C [34] was 14.4%, the viability, T/C [35] was 8.05% and the viability, T/C [36] was 4.78%.
